Measured values reported in patent publication US20240208940A1, “SMALL-MOLECULE INHIBITORS FOR BETA-CATENIN/BCELL LYMPHOMA 9 PROTEIN-PROTEIN INTERACTION” (H. LEE MOFFITT CANCER CENTER AND RESEARCH INSTITUTE, INC., priority 2021, published 2024).
pIC50, pKi: −log10 of the molar value. Structures can show the parent of a compound that is named as a salt.

Legend:
[1] = target: full-length β-catenin (Homo sapiens (Human), UniProt P35222); experiment: Streptavidin protein pull-down from SW480 cell lysates; assay type: binding; conditions: 1 μM
Procedure: Pull-Down Experiments. Colorectal cancer SW480 cells (70-80% confluency) in T75 flask were lysed first in 1 mL buffer A containing 50 mM Tris (pH 7.4), 150 mM NaCl, 1% Nonidet P-40, 2 mM EDTA, and protease inhibitors. Cell debris was removed by centrifugation at 10,000 g for 20 min at 4° C. To 500 μL SW480 cell lysates was added 1 or 10 μM Biotin-36 and the mixture was incubated at 4° C. for 3 h. Then, 25 μL Streptavidin Sepharose beads (5-1638, Sigma) were added to the lysate mixture and rotated at 4° C. for 2 h. The lysate mixture was centrifuged at 4000 rpm for 2 min at 4° C. The beads were washed with buffer B (20 mM Tris pH 7.4, 150 mM NaCl, 0.1% NP-40) for 4 times. The beads were resuspended in 60 μL of 2×SDS sample buffer. After boiling, the samples were loaded onto 8% SDS polyacrylamide gel for electrophoretic analysis. Separated proteins were transferred onto nitrocellulose membranes for immunoblot analysis. The antibody against β-catenin (610153, BD Biosciences) were incubated with the membranes. IRDye 680LT goat anti-mouse IgG (827-11080, LiCOR) was used as the secondary antibody. The images were detected by the Odyssey Infrared Imaging System (LiCOR). Experiments were performed in duplicate.

[2] = target: β-catenin/BCL9 PPI (Homo sapiens (Human), UniProt P35222); experiment: AlphaScreen competitive inhibition assay of β-catenin/BCL9 PPI; assay type: binding; conditions: mean ± standard deviation (n = 3); for pKi: derived from IC50, read-out: Ki ± SD
Procedure: AlphaScreen Assays of β-Catenin and BCL9 Interaction. Experiments were performed in white opaque 384-well plates from PerkinElmer (Waltham, MA), and the samples were read on a Biotek Synergy 2 plate reader (Winooski, VT) with excitation at 680 nm and emission at 570 nm. The standard AlphaScreen protocol was used with a sensitivity setting of 200. All dilutions were made in 1× assay buffer containing 25 mM Hepes (pH 7.4), 100 mM NaCl, 0.01% Triton X-100 and 0.1% BSA to minimize nonspecific interactions. For the competitive inhibition assays of β-catenin/BCL9 PPI, the negative control (equivalent to 0% inhibition) refers to 5.0 nM biotinylated BCL9, 50 nM His6-tagged β-catenin, and 10 μg/mL donor and acceptor beads in a final volume of 25 μL assay buffer, but no tested inhibitor present. The positive control (equivalent to 100% inhibition) refers to 5.0 nM biotinylated BCL9 and 10 μg/mL donor and acceptor beads in a final volume of 25 μL assay buffer.
For the β-catenin/BCL9 assay, 5 nM biotinylated BCL9 and 50 nM His6-tagged β-catenin were incubated in assay buffer for 30 min. Different concentrations of the tested inhibitor were added and incubated in 20 μL assay buffer for another 1 h. All of the assay plates were covered and gently mixed on an orbital shaker. The donor and acceptor beads were then added to the plates to a final concentration of 10 μg/mL in 25 μL assay buffer. The mixture was incubated for 1 h before detection. The IC50 value was determined by nonlinear least-square analysis of GraphPad Prism 8.0. The Ki values were derived from the IC50 values using a method reported by Wang and coworkers.^65 The equation used is Ki=[I]50/([L]50/Kd+[P]0/Kd+1) (Where [I]50 denotes the concentration of the free inhibitor at 50% inhibition, [L]50 is the concentration of the free labeled ligand at 50% inhibition, [P]0 is the concentration of the free protein at 0% inhibition, and Kd is the dissociation constant of the protein-ligand complex). All of the experiments were performed in triplicate and carried out in the presence of 1% DMSO for small-molecule inhibitors. Each compound was assayed at least by three independent experiments. The results were expressed as mean±standard deviation.

[3] = test system: β-catenin/E-cadherin PPI; experiment: Cell-based co-IP, β-catenin/E-cadherin; conditions: HCT116 cells, 24 h; concentrations sufficient to disrupt β-catenin/BCL9 PPI
Procedure: (§1) Co-IP Experiments. HCT116 cancer cells with hyperactive β-catenin signaling at 1×10^6 cells/mL were treated with different concentrations of the inhibitor for 24 h. Cells were then lysed in buffer containing 50 mM Tris, pH 7.4, 150 mM NaCl, 1% Nonidet P-40, 2 mM EDTA and protease inhibitors. The cell lysates were pre-adsorbed to A/G plus agarose (sc-2003, Santa Cruz Biotechnology) at 4° C. for 1 h. Pre-adsorbed lysates were incubated with a specific primary antibody against β-catenin (610153, BD Biosciences) overnight at 4° C. A/G plus agarose was then added to the lysate mixture and incubated for 3 h. The beads were washed four times with buffer B (20 mM Tris pH 7.4, 150 mM NaCl, 0.1% NP-40) at 4° C. The bound protein was eluted by boiling in the SDS sample buffer and loaded onto 8% SDS polyacrylamide gel for electrophoretic analysis. Separated proteins were transferred onto nitrocellulose membranes for immunoblot analysis. The antibodies against BCL9 (ab37305, Abcam) and E-cadherin (610404, BD Biosciences) were incubated with the membranes, respectively. IRDye 680LT goat anti mouse IgG (827-11080, LiCOR) and IRDye 800CW goat anti rabbit IgG (926-32211, LiCOR) were used as the secondary antibodies. The images were detected by the Odyssey Infrared Imaging System (LiCOR). Experiments were performed in triplicate.

[4] = test system: MCF10A cells; experiment: MTS cell growth inhibition, normal breast epithelial cells; assay type: cell-based, human; conditions: 72 h
Procedure: MTS Cell Growth Inhibition Experiments. Colorectal cancer cells (SW480 and HCT116) and triple negative breast cancer cells (MDA-MB-231 and MDA-MB-468) were seeded in 96-well plates at 5×10^3 cells/well in DMEM with 10% fetal bovine serum (FBS), maintained overnight at 37° C., and then incubated with the tested compounds at various concentrations in DMEM with 5% FBS. Human mammary epithelial MCF10A cells were seeded in 96-well plates at 1×10^4 cells/well in MEGM (CC-3150, Lonza) with 100 ng/mL cholera toxin, maintained overnight at 37° C., and incubated with the tested compounds at various concentrations. Cell viability was monitored after 72 h using a freshly prepared mixture of 1 part phenazine methosulfate (PMS, Sigma) solution (0.92 mg/mL) and 19 parts 3-(4,5-dimethylthiazol-2-yl)-5-(3-carboxymethoxyphenyl)-2-(4-sulfophenyl)-2H-tetrazolium (MTS, Promega) solution (2 mg/mL). Cells were incubated in 10 μL of this solution at 37° C. for 3 h, and the UV absorption at 490 nm (A490) was measured. The effect of each compound is expressed as the concentration required to reduce A490 by 50% (IC50) relative to DMSO-treated cells. Experiments were performed in triplicate.

[5] = test system: Axin2; experiment: Western blot of Wnt target gene protein expression; assay type: cell-based; conditions: SW480 cells, 24-h incubation
Procedure: Western Blotting of Wnt Target Genes. SW480 cells at 1×10^6 cells/mL were treated with different concentrations of inhibitors for 24 h. Cells were lysed in buffer containing 50 mM Tris (pH 7.4), 150 mM NaCl, 1% Nonidet P-40, 0.1% SDS, 0.5% sodium deoxycholate, and protease inhibitors. After centrifugation at 12,000 rpm for 20 min at 4° C., the supernatant was boiling in the SDS sample buffer and loaded onto an 8% SDS polyacrylamide gel for electrophoretic analysis. Separated proteins were transferred onto nitrocellulose membranes for immunoblot analysis. The antibodies against Axin2 (MA5-15015, Thermo Fisher) and f-tubulin (sc-55529, Santa Cruz Biotechnology) were incubated with the membranes overnight at 4° C., respectively. IRDye 680LT goat anti-mouse IgG (827-11080, LiCOR) or IRDye 800CW goat anti-rabbit IgG (827-08365, LiCOR) was used as the secondary antibody. The images were detected by the Odyssey Infrared Imaging System (LiCOR). Experiments were performed in duplicate.

[6] = test system: β-catenin/BCL9 PPI; experiment: Cell-based co-IP, β-catenin/BCL9; conditions: HCT116 cells, 24 h
Procedure: as §1

[7] = test system: Wnt/β-catenin transactivation (TOPFlash) in SW480 cells; experiment: Wnt-responsive TOPFlash luciferase reporter assay; assay type: cell-based; conditions: 24 h
Procedure: (§2) Cell Transfection and Luciferase Assay. FuGENE6 (E269 Å, Promega) 96 well plate format was used for the transfection of SW480 cells according to the manufacturer's instruction. SW480 cells were co-transfected with 60 ng of the TOPFlash or FOPFlash firefly luciferase reporter gene and 40 ng of the Renilla luciferase pCMV-RL normalization reporter gene. Cells were cultured in DMEM and 10% FBS at 37° C. for 24 h, and then different concentrations of inhibitors or DMSO was added and incubated in DMEM with 5% FBS. After 24 h, the luciferase reporter activity was measured using the Dual-Glo system (E2940, Promega). Normalized luciferase activity in response to the treatment with inhibitors was compared with that obtained from the cells treated with DMSO. Experiments were performed in triplicate.

[8] = test system: Wnt target genes Axin2, BCL9L, MMP7 in SW480 cells; experiment: Quantitative real-time PCR of Wnt target genes; assay type: cell-based, human; conditions: 24-h incubation
Procedure: Quantitative Real Time PCR analysis. SW480 cells at 1×10^6 cells/mL were treated with inhibitors at different concentrations for 24 h. Total RNAs were extracted with TRIzol (15596026, Life Technologies), and the cDNA was synthesized with the superscript III first-strand kit (18080-051, Invitrogen). qPCR experiments were performed using the iQ™ SYBR green supermix kit (170-8880, BIO-RAD) on an CFX96 Real Time System (BIO-RAD). The threshold cycle (CT) values were normalized to that of internal reference GAPDH. Experiments were performed in triplicate. The primer pairs are shown below

[9] = test system: FOPFlash reporter in SW480 cells; experiment: FOPFlash luciferase reporter assay; assay type: cell-based; conditions: testing concentrations
Procedure: as §2

Chain of β-catenin/BCL9 PPI (Homo sapiens (Human), UniProt P35222) (P35222 whole entry): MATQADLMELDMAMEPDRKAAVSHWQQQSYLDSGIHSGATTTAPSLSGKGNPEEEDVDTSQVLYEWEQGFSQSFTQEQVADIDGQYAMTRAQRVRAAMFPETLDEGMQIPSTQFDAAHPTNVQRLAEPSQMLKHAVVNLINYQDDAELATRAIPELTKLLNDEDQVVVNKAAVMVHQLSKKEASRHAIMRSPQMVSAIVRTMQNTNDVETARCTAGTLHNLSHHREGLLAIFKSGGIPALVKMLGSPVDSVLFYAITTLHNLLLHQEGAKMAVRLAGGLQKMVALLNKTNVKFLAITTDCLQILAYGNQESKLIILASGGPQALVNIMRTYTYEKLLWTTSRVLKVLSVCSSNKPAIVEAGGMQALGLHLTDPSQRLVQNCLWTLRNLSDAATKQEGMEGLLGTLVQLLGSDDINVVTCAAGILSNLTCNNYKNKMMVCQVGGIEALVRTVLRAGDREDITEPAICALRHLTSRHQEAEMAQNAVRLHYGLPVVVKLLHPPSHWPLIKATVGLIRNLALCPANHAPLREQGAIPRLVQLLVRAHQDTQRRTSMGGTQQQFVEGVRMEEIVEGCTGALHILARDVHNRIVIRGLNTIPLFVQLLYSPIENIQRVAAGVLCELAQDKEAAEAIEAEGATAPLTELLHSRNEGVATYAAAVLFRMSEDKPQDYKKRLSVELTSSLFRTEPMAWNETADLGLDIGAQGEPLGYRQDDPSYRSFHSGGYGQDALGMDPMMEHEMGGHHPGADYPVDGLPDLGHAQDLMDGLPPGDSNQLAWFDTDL
Chain of full-length β-catenin (P35222 whole entry): as above

SMILES	pKi [2]	pIC50 [2]	other results
CC(C)(C)C1CCC(c2cc(C(=O)N3CCC(Oc4cc(N5CCNCC5)ccc4C#N)CC3)ccc2O[C@@H]2CNC[C@H]2OCCOCCOCCNC(=O)CCCC[C@@H]2SCC3NC(=O)NC32)CC1.O=C(O)C(F)(F)F.O=C(O)C(F)(F)F (relative stereo) [Biotin-37, trans-N-(2-(2-(2-((4-(2-(cis- and trans-4-(tert-butyl)cyclohexyl)-4-(4-(2-cyano-5-(piperazin-1-yl)phenoxy)piperidine-1-carbonyl)phenoxy)pyrrolidin-3-yl)oxy)ethoxy)ethoxy)ethyl)-5-((4S)-2-oxohexahydro-1H-thieno[3,4-d]imidazol-4-yl)pentanamide ditrifluoroacetic acid]			binding with β-catenin (pull-down, Western blot) [1]: effectively bound with full-length β-catenin
CC(C)(C)C1CCN(c2cc(C(=O)N3CCC(Oc4cc(F)cc(N5CCNCC5)c4)CC3)ccc2O[C@H]2CCNC2)CC1 [Compound 27, (S)-(3-(4-(tert-butyl)piperidin-1-yl)-4-(pyrrolidin-3-yloxy)phenyl)(4-(3-fluoro-5-(piperazin-1-yl)phenoxy)piperidin-1-yl)methanone dihydrochloride]	≥ 4.52	≥ 4.52	
CC1(O)CCN(c2cc(C(=O)N3CCC(Oc4cc(F)cc(N5CCNCC5)c4)CC3)ccc2O[C@H]2CCNC2)CC1 [Compound 28]	≥ 4.70	≥ 4.70	
CC(C)(O)C1CCN(c2cc(C(=O)N3CCC(Oc4cc(F)cc(N5CCNCC5)c4)CC3)ccc2O[C@H]2CCNC2)CC1 [Compound 29, (4-(3-fluoro-5-(piperazin-1-yl)phenoxy)piperidin-1-yl)(3-(4-(2-hydroxypropan-2-yl)piperidin-1-yl)-4-(pyrrolidin-3-yloxy)phenyl)methanone]	≥ 4.30	≥ 4.30	
CC(C)(C)[C@H]1CC[C@@H](c2cc(C(=O)N3CCC(Oc4cc(N5CCNCC5)ccc4C#N)CC3)ccc2O[C@H]2CCNC2)CC1 [Compound 44]	≥ 5.70	≥ 5.70	effect on β-catenin/E-cadherin PPI (co-IP) [3]: did not affect the β-catenin/E-cadherin PPI; selectivity over normal breast epithelial MCF10A cells [4]: > 4 fold; protein expression level of Axin2 [5]: significant decreased; disruption of β-catenin/BCL9 interaction (co-IP) [6]: effectively disrupted β-catenin/BCL9 interaction; pIC50 [7]: 5.59; effect on house-keeper gene HPRT (qPCR) [8]: no effect; transcription of Wnt target genes Axin2, BCL9L, MMP7 (qPCR) [8]: downregulated transcriptions; FOPFlash luciferase activity [9]: not affected
CC(C)(C)[C@H]1CC[C@H](c2cc(C(=O)N3CCC(Oc4cc(N5CCNCC5)ccc4C#N)CC3)ccc2O[C@H]2CCNC2)CC1 [Compound 45]	≥ 5.40	≥ 5.40	
